Where two headings read alike, the source gives them in different places. Ends that are not written are not given here.
Experiments:
[1] = system: disaggregated rat osteoclasts
Method: (§1) Bone resorption assay: Human cortical bone slices were prepared as previously described (Zaidi et al. Quart J.Exp. Physiol. 73, p. 471 (1988). The slices were then cut into pieces, each measuring about 3mm². Newborn Wistar rats were killed by decapitation and their femora and tibiae removed. The bones were freed of adherent soft tissues and cut across their epiphyses in Medium 199 with foetal calf serum (FCS, 10%, v/v) and antibiotics (Flow Laboratories, UK, Ltd.). Osteoclasts were mechanically disaggregated by curetting the bones of each rat with a scalpel blade into Medium 199 (1 ml) and agitating the suspension with a pipette. Large fragments were allowed to settle for 10 seconds, before the supernatant was dropped onto 30 to 35 bone slices placed in a well of a Sterilin 100 18mm multiwell dish. Following incubation (37°C; 15 minutes), the bone slices were removed, washed gently in Minimal Essential Medium with FCS (10%, v/v) (MEM/FCS) and placed in separate wells (each well contained 5-6 slices and 900 µl MEM/FCS). […] After further incubation (37°C, 10% humidified CO₂, 10 minutes), 100 µl of MEM/FCS containing the test substance was added. Finally, bone slices were incubated overnight (37°C, 10% humidified CO₂, 18 hours) and quantified in terms of cell numbers and bone resorption. After fixation in glutaraldehyde, cells were stained with toluidine blue and examined by transmitted light microscopy. In order to rule out toxic effects, osteoclasts were counted on three slices for every variable and their numbers were then compared on hormone-treated and control bone slices. The slices were bleached by immersion in sodium hypochlorite solution (10% v/v) for 30 minutes and dehydrated in aqueous ethanol (80% v/v). The slices were then sputter coated with gold, randomized and examined in a Cambridge 360 Scanning Electron Microscope (Cambridge Instruments, Cambridgeshire). Osteoclastic excavations, each defined by a continuous border within an area of unresorbed bone were counted. The area of bone surface resorbed was calculated by tracing the outline of the concavities into an image processor (Sight Systems, Newbury, Berks).

[2] = in vivo rat hypocalcaemia assay: plasma calcium after intravenous injection of the peptide; parameters: species or system male Wistar rats
Method: The effects of amylin and deamidated amylin on calcium metabolism in the rat and rabbit were investigated by two different methods. First, in vivo hypocalcaemic activity was assessed by measuring plasma calcium levels after injection of the peptide in 50 g rats. Next, in vitro resorption of cortical bone by disaggregated rat osteoclasts was quantified by scanning electron microscopy together with image analysis. […] Both are inhibitors of osteoclastic resorption and lower plasma calcium in both rats and rabbits. Described below are experiments which show the biological activity of both amylin and deamidated amylin using the in vivo rat hypocalcaemia assay and an in vitro bone resorption system. In addition, the effect on plasma calcium levels of infusion of high doses of amylin into rabbits is described.
Animal experiments: Fifty gram male Wistar rats (mean weight ± SEM, 51 ± 1.2g, Charles Rivers, Margate, Kent) were fasted overnight with ad lib access to water and used for experiments. […] Following injection the animals were bled into heparinized syringes via the dorsal aorta under light ether anaesthesia. In another set of experiments, rabbits (mean weight ± SEM, 3.2 ± 0.3 kg) were restrained in wooden cages and sedated with Hypnorm (1 ml) (Janssen, Denmark). […] Plasma was separated and calcium levels measured by DC Plasma Emission Spectrophotometry.

[3] = system: isolated osteoclasts; assay: second messenger pathways and functional responses of isolated osteoclasts; format: cell-based
Description: Thus, it appears that osteoclast activity may be restrained via two receptor types; calcitonin acts at both while amylin acts mainly via only one, reducing motility, reducing resorption and probably acting via the second messenger cAMP (Zaidi et. al. 1990, J. Endocrinol 126, 473-481).

[4] = system: disaggregated rat osteoclasts; assay: bone resorption assay: isolated osteoclasts on human cortical bone slices, scanning electron microscopy with image analysis
Method: as §1

[5] = plasma calcium after intravenous infusion in patients with Paget's disease; format: in vivo
Method: Furthermore, 1 hour of intravenous infusion of 150 pmol/Kg/min amylin into four human patients with Paget's disease reduced plasma calcium by amounts ranging from […].

[6] = plasma calcium during and after continuous intravenous infusion into rabbits; format: in vivo; details: infusion of 500 pmol per minute over 90 minutes
Method: Animal experiments: Fifty gram male Wistar rats (mean weight ± SEM, 51 ± 1.2g, Charles Rivers, Margate, Kent) were fasted overnight with ad lib access to water and used for experiments. […] Following injection the animals were bled into heparinized syringes via the dorsal aorta under light ether anaesthesia. In another set of experiments, rabbits (mean weight ± SEM, 3.2 ± 0.3 kg) were restrained in wooden cages and sedated with Hypnorm (1 ml) (Janssen, Denmark). They were infused with saline or amylin (500 pmol min ⁻¹) for 90 minutes via a 21 G needle inserted into the lateral ear vein. The needle was connected to a pump via a polythene cannula (Portex, 00, Hythe, Kent). Blood samples were taken at timed intervals before and after the infusion was commenced. Plasma was separated and calcium levels measured by DC Plasma Emission Spectrophotometry.

[7] = peptides not all compared in the same assay

| Molecule | cell number or viability [1] | effect on plasma calcium ([2]; 50 g rats, intravenous injection of 500 pmol) | responses (hypocalcaemic and anti-resorptive activity) compared with calcitonin and CGRP ([2]; summary covering the in vivo and the in vitro tests, order: asu1-7-eel CT>human CT>amylin/amylin amide>CGRP) | cell retraction [3] | cytosolic calcium [3] | osteoclast motility [3] | total area of bone resorbed by isolated osteoclasts ([4]; 18 hours incubation, concentration-dependent) | cell number or viability ([4]; osteoclasts counted on hormone-treated and control bone slices) | potency compared with CGRP [4, 7] | potency compared with human calcitonin [4, 7] | potency compared with human calcitonin [5] | effect on plasma calcium [6] | time calcium levels continued to fall after the end of the infusion [6] | time until a trend to lower plasma calcium was apparent [6] |
| --- | --- | --- | --- | --- | --- | --- | --- | --- | --- | --- | --- | --- | --- | --- |
| CC[C@H](C)[C@H](NC(=O)[C@H](C)NC(=O)CNC(=O)[C@H](Cc1ccccc1)NC(=O)[C@H](CC(N)=O)NC(=O)[C@H](CC(N)=O)NC(=O)[C@H](CO)NC(=O)[C@H](CO)NC(=O)[C@H](Cc1c[nH]cn1)NC(=O)[C@@H](NC(=O)[C@H](CC(C)C)NC(=O)[C@H](Cc1ccccc1)NC(=O)[C@H](CC(N)=O)NC(=O)[C@H](C)NC(=O)[C@H](CC(C)C)NC(=O)[C@H](CCCNC(=N)N)NC(=O)[C@H](CCC(N)=O)NC(=O)[C@@H](NC(=O)[C@H](C)NC(=O)[C@@H]1CSSC[C@H](NC(=O)[C@@H](N)CCCCN)C(=O)N[C@@H](CC(N)=O)C(=O)N[C@@H]([C@@H](C)O)C(=O)N[C@@H](C)C(=O)N[C@@H]([C@@H](C)O)C(=O)N1)[C@@H](C)O)C(C)C)C(=O)N[C@@H](CC(C)C)C(=O)N[C@@H](CO)C(=O)N[C@@H](CO)C(=O)N[C@H](C(=O)N[C@@H](CC(N)=O)C(=O)N[C@H](C(=O)NCC(=O)N[C@@H](CO)C(=O)N[C@@H](CC(N)=O)C(=O)N[C@H](C(=O)N[C@@H](Cc1ccc(O)cc1)C(=O)O)[C@@H](C)O)C(C)C)[C@@H](C)O [deamidated amylin] | without affecting cell number or viability | – | – | – | – | – | – | – | – | – | – | – | – | – |
| amylin (KCNTATCATQRLANFLVHSSNNFGAILSSTNVGSNTY-NH2; cysteine pairing not given here; UniProt P10997 34-70, looked up) [37 amino acid polypeptide, disulfide bridge between cysteines 2 and 7, amidated; isolated from amyloid deposits in pancreatic islets] | – | marked hypocalcaemia | less than for calcitonin, but significantly greater than those observed with CGRP | evoked neither of these responses | evoked neither of these responses | inhibited osteoclast motility | marked reduction | without affecting cell number or viability | more potent than CGRP | less potent than human calcitonin by about an order or magnitude | comparably potent to human calcitonin | marked lowering of plasma calcium | 30 min | ≤ 30 min |
| calcitonin [reference compound] | – | – | – | caused cell retraction | elevated cytosolic calcium | inhibited osteoclast motility | – | – | – | – | – | – | – | – |

Source: patent EP0408284B1, “Amylin for treatment of bone disorders” (AMYLIN PHARMACEUTICALS, INC., priority 1989, dated 1996)
